The values that follow come from patent US12226410B2, “Methods for enhancing cellular clearance of pathological molecules via activation of the cellular protein ykt6” (NORTHWESTERN UNIVERSITY, priority 2019, dated 2025).

The subject of one assay is ykt6 SNARE complexes. Put plainly: Co-IP of GFP-ykt6 SNARE assemblies in FTI-treated SH-SY5Y cells. The class given is cell-based, human. The note with it: SH-SY5Y cells expressing GFP-ykt6 wt; 5 nM, 5d. How it is done:
FIGS. 5A, 5B, 5C, 5D, 5E, 5F, and 5G. Reducing farnesyl-ykt6 enhances SNARE assembly and improves the lysosomal targeting of GCase. 5A) Ykt6 membrane shift analysis of SH-SY5Y cells expressing GFP-ykt6 wt or CS (n=3). 5B) Co-IP of GFP-ykt6 and bet1 in A53T iPSn (n=3). 5C) Ykt6 membrane shift analysis in FTI-treated SH-SY5Y wt a-syn cells or A53T iPSn (5 nM farnesyltransferase inhibitors (FTI) LNK-754 (FTI-1) or LNK-3248 (FTI-2) for 5 days) (n=4). Sec22b was measured to assess specificity. 5D) SEC/western blot of FTI-1 treated SH-SY5Y cells. Quantification is shown below. 5E) Co-IP of GFP-ykt6 wt or mutant ykt6-SS, (cannot be palmitoylated or farnesylated) in FTI-treated SHSY5Y cells (5 nM LNK-754, 5d) (n=2). 5F) Immunofluorescence of GCase and LAMP2A in FTI-treated H4 a-syn cells transfected with scrambled (scrb) or ykt6 shRNA (n=3). Scale bar=10 um. 5G) GCase maturation analysis in FTI-treated A53T iPSn by endo H (n=3). Values are the mean+/−SEM, *p<0.05.
To co-IP ykt6 SNARE assemblies, approximately 106-107 cells expressing GFP-tagged YKT6, were harvested in 1 ml of PBS, scraped off the plate and transferred to centrifuge tubes. The cells were subjected to centrifugation 200×g for 5 m at 4° C. […] Eluates were analyzed by western blot as described below. The samples were not analyzed in a blinded manner.

In a further assay the test system is GCase. Put plainly: FTI treatment of DASYN53 mice: GCase maturation and activity in midbrain. The class given is in vivo. The note with it: i.p. 0.9 mg/kg, 26d. On the procedure: FIGS. 7A, 7B, 7C, 7D, and 7E. FTI treatment restores functional membrane-associated ykt6 complexes in DASYN53 mice. 7A) Immunohistochemistry in the midbrain of mice showing ykt6, tyrosine hydroxylase (TH), NeuN, and nuclei (DAPI). Scale bar, 50 μm. 7B) Ykt6 membrane shift analysis in olfactory bulbs of FTI (LNK-754)-injected DASYN53 mice (12-14 months, i.p. 26d, 0.9 mg/kg) (n=5, non-transgenic (nTg)+veh; n=4, DASYN53+veh; n=4 DASYN53+FTI). GAPDH and sec22b are loading controls. 7C) SEC/western blot analysis of midbrains of FTI-treated DASYN53 mice. Inputs are shown on the left. NSE is a loading control. […] (n=3, nTg+veh; n=4, DASYN53+veh; n=4 DASYN53+FTI). 7D) Quantification of complexes from SEC in 7C. 7E) GCase maturation was assessed in midbrain lysates by endo H resistance (n=4, nTg+veh; n=4, DASYN53+veh; n=4 DASYN53+FTI). For all quantifications, each point represents a measurement from an individual animal. […]
FIGS. 8A, 8B, 8C, 8D, 8E, and 8F. […] 8B & 8C) Quantification of soluble and insoluble a-syn from midbrains of FTI-treated DASYN53 mice normalized to total protein (CBB). […] 8D) Midbrain TH levels were quantified by western blot of FTI-treated DASYN53 mice (n=3). […]
Analysis of post-ER GCase. […] Endo H resistant bands migrating at 62-64 kDa were measured as post-ER forms of GCase, and normalized to GAPDH levels. […]

Turning to `C#Cc1cccc(-c2cc(=O)n(C)c3ccc([C@](O)(c4ccc(Cl)cc4)c4cncn4C)cc23)c1` [LNK-754], the “ykt6 SNARE complexes by co-IP” value in the assay on ykt6 SNARE complexes was “increased ykt6 SNARE complexes”. The “enhancement of GCase activity in midbrain” value in the assay with GCase is “ca. 40%”. Moreover, the “GCase trafficking (mature, endo H resistant forms)” value in the assay with GCase (midbrain lysates) is reported as “enhanced GCase trafficking”.
